Measurements reported in US20090081194A1, “COMPOSITIONS AND METHODS FOR REDUCING RISK OF DEVELOPMENT, OR SEVERITY, OF INAPPROPRIATE IMMUNE RESPONSE IN EYES” (priority 2007, published 2009).

How the values were obtained:
TLR9 = biological target: T1, TLR9 (Homo sapiens, UniProt Q9NR96); details: Gursel et al. 2003; Stunz et al. 2002; cited from earlier work
T1 sequence (Q9NR96 26-1032): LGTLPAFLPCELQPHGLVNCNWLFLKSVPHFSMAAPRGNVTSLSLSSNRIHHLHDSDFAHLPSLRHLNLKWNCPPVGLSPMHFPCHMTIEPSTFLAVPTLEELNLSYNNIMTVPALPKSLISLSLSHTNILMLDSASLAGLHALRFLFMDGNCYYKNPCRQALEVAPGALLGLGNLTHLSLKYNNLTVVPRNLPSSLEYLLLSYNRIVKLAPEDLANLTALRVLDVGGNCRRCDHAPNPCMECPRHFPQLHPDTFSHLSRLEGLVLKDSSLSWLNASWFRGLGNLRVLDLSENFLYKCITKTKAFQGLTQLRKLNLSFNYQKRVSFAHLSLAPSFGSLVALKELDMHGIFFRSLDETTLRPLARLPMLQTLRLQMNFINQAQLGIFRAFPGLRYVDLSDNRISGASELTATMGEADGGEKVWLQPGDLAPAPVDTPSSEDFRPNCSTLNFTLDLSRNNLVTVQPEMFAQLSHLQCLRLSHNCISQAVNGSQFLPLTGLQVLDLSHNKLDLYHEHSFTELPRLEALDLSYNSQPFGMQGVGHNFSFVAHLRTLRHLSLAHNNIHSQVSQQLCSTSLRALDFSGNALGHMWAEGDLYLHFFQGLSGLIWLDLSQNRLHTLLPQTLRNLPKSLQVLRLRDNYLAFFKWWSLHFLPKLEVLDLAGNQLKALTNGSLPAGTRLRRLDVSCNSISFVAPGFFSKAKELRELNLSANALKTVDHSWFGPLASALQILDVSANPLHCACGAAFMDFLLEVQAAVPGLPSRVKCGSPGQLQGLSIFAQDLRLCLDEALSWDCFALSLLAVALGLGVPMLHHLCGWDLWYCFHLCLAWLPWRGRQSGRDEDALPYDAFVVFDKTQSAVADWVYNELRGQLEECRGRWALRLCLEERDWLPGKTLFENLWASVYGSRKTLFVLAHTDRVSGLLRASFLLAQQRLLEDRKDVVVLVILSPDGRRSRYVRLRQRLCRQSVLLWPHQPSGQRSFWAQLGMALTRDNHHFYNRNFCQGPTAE

C57BL/6 mouse cornea [1] = assay: Mouse keratitis: neutrophil infiltrate in abraded cornea; format: in vivo; details: topical on abraded cornea, 24 hours, FIG. 5
Experimental: In this experiment, 1 μl of test solution containing 20 μg/ml of the synthetic stimulatory ODN 1826, 10 μg/ml of endotoxin-free DNA from E. coli K12, 20 μg/ml of Pam3Cys, or 20 μg/ml LPS, along with a composition of the present invention containing the inhibitory ODN 2088, the control composition containing 20 μg/ml of ODN 1911, or medium only, was applied to a 1 mm^2 abraded area of central C57BL/6 mouse cornea that had been marked by sterile trephine (Miltex, Tuttlingen, Germany) and abraded with an Alger brush II (Alger, PagoVista, Texas). After 24 hours, the corneal infiltrate was determined as the number of neutrophils per corneal section. […] Other inhibitors of TLR2 and TLR4 activation should be effective in suppressing corneal infiltrate induced by Pam3Cys and LPS, respectively.

C57BL/6 mouse cornea [2] = assay: Corneal epithelium cytokines (ELISA) after stimulatory ODN on abraded mouse cornea; format: in vivo; details: stimulatory ODN 1826 20 μg/ml with ODN 2088 20 μg/ml, 5 hours; all three cytokines; FIG. 6
Experimental: In this experiment, 1 μl of test solution containing 20 μg/ml of the synthetic stimulatory ODN 1826, along with a composition of the present invention containing 20 μg/ml of the inhibitory ODN 2088, or a control composition containing 20 μg/ml of the control ODN 1911, or the medium only, was applied to a 1 mm^2 abraded area of central C57BL/6 mouse cornea that had been marked by sterile trephine (Miltex, Tuttlingen, Germany) and abraded with an Alger brush II (Alger, PagoVista, TX). After 5 hours, the corneal epithelium was separated after 20 minutes in 20 mM EDTA at 37° C. and placed into RPMI 1640 medium. Samples were disrupted by sonication for 88 seconds with 40% duty cycle (Vibracell; Sonics and Material, Danbury, Conn.). Cytokines were measured by ELISA assay (R&D Systems, Minneapolis, Minn.) for the pro-inflammatory cytokines MIP-2, KC, and human interferon-inducible protein 10 (“IP-10”).

[3] = tested on: mouse peritoneal neutrophils; assay: Cytokine production (ELISA) by activated mouse peritoneal neutrophils; format: cell-based; details: 15 hours
Experimental: In one experiment, mouse peritoneal neutrophils were isolated from C57BL/6 mice that had received intraperitoneal injection of 1% casein solution containing 0.5 mM MgCl2 and 0.99 mM CaCl2 16 hours and 3 hours prior to harvesting in Hank's balanced salt solution (“HBSS”) lavage. Collected cells were centrifuged (2000 rpm, 10 min) and washed twice in HBSS, prior to separation of granulocytes by Percol gradient at 31,500 rpm for 20 min. Cells were washed twice and resuspended in Dubelco's modified eagle's medium (“DMEM”) containing 10% fetal calf serum (Invitrogen, Basel Switzerland). Purity of 98% neutrophils was verified by Diff-Quik stain (VWR, Bridgeport, N.J.). Neutrophils (1×10^5/well) were pre-incubated with 100 ng/ml GM-CSF at 37° C. for 1 hour prior to exposure to compositions of the present invention comprising 0.08-10 μg/ml of inhibitory ODN 2088 (InvivoGen, San Diego, Calif.; sequence disclosed above) or a control composition containing 20 μg/ml of the control ODN 1911 (Operon Qiagen, Valencia, Calif.; having a sequence of […]), or the medium only, for 30 minutes prior to activation with 20 μg/ml of stimulatory ODN 1826 (Operon Qiagen, Valencia, Calif.; having a sequence of […]); 20 μg/ml of endotoxin-free DNA from E. coli K12 (InvivoGen, San Diego, Calif.); killed Staphylococcus aureus strain E2061740 (3×10^5 cfu/ml); 100 ng/ml of Pam3Cys (synthetic lipopeptide (S)-(2,3-bis(palmitoyloxy)-(2RS)-propyl)-N-palmitoyl-(R)-Cys-(S)-Ser-(S)-Lys4-OH, EMC Microcollections, Tubingen, Germany); or 200 ng/ml of LPS (ultra pure lipopolysaccharide from E. coli 0111:B4 strain, InvivoGen, San Diego, Calif.). After 15 hours at 37° C., supernates were collected for ELISA assay (R&D Systems, Minneapolis, Minn.) for pro-inflammatory cytokines macrophage inflammatory protein-2 (“MIP-2”), keratinocyte-derived chemokines (“KC”), IL-6, and TNF-α. […] The production of these pro-inflammatory cytokines was not affected when neutrophils activated by Pam3Cys or LPS were treated with a composition comprising the inhibitory ODN 2088. This not surprising in view of the fact that the inhibitory ODN 2088 inhibits the activation of TLR9 while LPS and Pam3Cys activate TLR4 and TLR2, respectively. Other inhibitors of TLR2 and TLR4 activation should be effective in suppressing corneal infiltrate induced by […], respectively.

Sequence: TCCTGGCGGGGAAGT (chemistry not given here) [ODN 2088]
- colocalization of CpG DNA with TLR9 within endosomal vesicles (TLR9): block the colocalization
- corneal infiltrate, number of neutrophils per corneal section (C57BL/6 mouse cornea [1]; LPS 20 μg/ml): not effective in suppressing corneal infiltrates
- corneal infiltrate, number of neutrophils per corneal section (C57BL/6 mouse cornea [1]; Pam3Cys 20 μg/ml): not effective in suppressing corneal infiltrates
- corneal infiltrate, number of neutrophils per corneal section (C57BL/6 mouse cornea [1]; bacterial DNA (E. coli K12) 10 μg/ml): reduced the number of infiltrating neutrophils
- corneal infiltrate, number of neutrophils per corneal section (C57BL/6 mouse cornea [1]; stimulatory ODN 1826 20 μg/ml): reduced the number of infiltrating neutrophils
- corneal cytokine response (MIP-2, KC, IP-10) (C57BL/6 mouse cornea [2]): reduced cytokine response
- pro-inflammatory cytokine production by neutrophils (MIP-2, KC, IL-6, TNF-α) ([3]; activation with 100 ng/ml Pam3Cys): not affected
- pro-inflammatory cytokine production by neutrophils (MIP-2, KC, IL-6, TNF-α) ([3]; activation with 200 ng/ml LPS): not affected
- pro-inflammatory cytokine production by neutrophils (MIP-2, KC, IL-6, TNF-α) ([3]; activation with 20 μg/ml endotoxin-free DNA from E. coli K12, ODN 2088 0.08-10 μg/ml, dose dependent, FIGS. 1-4): inhibited pro-inflammatory cytokine production
- pro-inflammatory cytokine production by neutrophils (MIP-2, KC, IL-6, TNF-α) ([3]; activation with 20 μg/ml stimulatory ODN 1826, ODN 2088 0.08-10 μg/ml, dose dependent, FIGS. 1-4): inhibited pro-inflammatory cytokine production
- pro-inflammatory cytokine production by neutrophils (MIP-2, KC, IL-6, TNF-α) ([3]; activation with killed Staphylococcus aureus (3×10^5 cfu/ml)): nondetectable levels
